“Also recorded” adds a separate entry of the source.
What was measured:
Assay type in all cases: in vivo, mouse
[1] = tested on: CC10-rtTA-VEGF165 transgenic mice; assay: VEGF-induced mucus metaplasia (PAS staining, BAL MUC5AC); conditions: for VEGF-induced mucus metaplasia (PAS stains, BAL MUC5AC accumulation): vs vehicle
Description: (§1) To define the effects of Poly(I:C) a number of protocols were employed. In most experiments, a pretreatment-2 week protocol was employed. In these experiments, WT and Tg+ mice were treated with Poly(I:C) (30 μg in 50 lambda unless otherwise indicated; Amersham Biosciences, N.J.) or vehicle control via nasal aspiration and transgene activation was accomplished via the administration of dox (0.5 mg/ml) in the animal's drinking water 24 hours later. The Poly(I:C) was administered every other day and the dox was administered continuously for up to 2 weeks.
(§2) Lastly, in selected experiments post-transgene activation protocols were employed. In these experiments dox was administered for 2 days or 2 weeks. The Poly(I:C) was then administered via intranasal aspiration every other day for 2 weeks as disclosed elsewhere herein. In selected pre-treatment and post-transgene activation experiments, unmethylated CpG (CpG-B) (Keck Center, Yale University) was also employed at similar doses. At the end of these intervals, assessments of angiogenesis (anti-CD31 immunohistochemistry), vascular permeability (Evan's blue dye extravasation, wet to dry lung weight measurements, BAL protein concentration), BAL and tissue inflammatory cell infiltration and mucus metaplasia (periodic acid-Schiff (PAS) staining, MUC5AC immunoblotting) were undertaken. In all cases experiments were designed to compare Tg− and Tg+ mice on normal water and Tg− and Tg+ mice on dox water.
The lungs were removed en bloc as described elsewhere herein, inflated at 25 cm pressure with PBS containing 0.5% low melting point agarose gel, fixed in Streck solution (Streck Laboratories, La Vista, Nebr.), embedded in paraffin, sectioned and stained. Hematoxylin and eosin and PAS stains were performed in the Research Histology Laboratory of the Department of Pathology at the Yale University School of Medicine. Pulmonary hemorrhage was evaluated by quantitating BAL red blood cell number with a Coulter counter (Beckman Coulter).
The levels of MUC5AC, the major airway mucin in BAL fluids, were assessed as previously described (Lee et al., 2008, Am J Respir Cell Mol Biol 39:739-746). In these evaluations, 0.1 ml of BAL fluid was slot blotted onto nitrocellulose membranes using a Minifold II slot blot apparatus (Schleicher & Schuell). After air-drying, the membrane was blocked with 5% skim milk, washed three times and incubated overnight at 4° C. with a monoclonal antibody against Mucin-5AC (45M1; NeoMarkers, Union City, Calif.). After washing, the membranes were incubated for 1 hour at room temperature with horseradish peroxidase-conjugated anti-mouse immunoglobulin (Ig)-G (Pierce). Immunoreactive mucins were detected using a chemiluminescent procedure (ECL Plus Western blotting detection system, Amersham Biosciences) according to instructions from the manufacturer.

[2] = tested on: CC10-rtTA-VEGF165 transgenic mice; assay: VEGF-induced angiogenesis, anti-CD31 immunohistochemistry and vessel area density; conditions: for VEGF-induced angiogenesis (vascular density, appearance, sprouting): pretreatment starting 1 day before dox, vs vehicle
Description: The CC10-rtTA-VEGF165 transgenic mice used in this study were generated and used as described previously (Lee et al., 2004, Nature Medicine 10:1095-103), which reference is incorporated herein in its entirety. These animals were housed under barrier conditions in the animal facility at Yale University School of Medicine. In these experiments 6-8 week old transgenic (Tg+) animals and their transgene negative littermate controls (Tg−) were randomized to receive water with doxycycline (dox) (0.5 mg/ml) or normal water. Two weeks later they were sacrificed and the VEGF-induced phenotype was evaluated as described below (Lee et al., 2004, Nature Medicine 10:1095-103).
To define the effects of these agents on the tissue responses induced by VEGF, two experimental procedures were used. In the first, a pretreatment protocol was used. In these experiments the noted innate immunity agonist ([…] unless otherwise indicated) or its vehicle control (PBS) were administered intranasally and aspirated into the lungs of randomized Tg+ and Tg− mice starting one day before the Dox water treatment. The doses were administered to the mice every other day during the 2 week doxyxycline (dox) treatment interval.
To determine if the innate immunity agonists altered established VEGF-induced tissue responses, a “post treatment” protocol was used in selected experiments. In these experiments the innate immunity agonist was administered 2 days or 14 days after the doxycycline and VEGF-induced responses were evaluated 2 weeks later.
as §1
In selected experiments a pretreatment protocol and shorter treatment interval was employed. In these experiments, WT and Tg+ mice were treated with Poly(I:C) (30 μg/mouse/dose in 50 μl) or vehicle control via nasal aspiration and transgene activation was accomplished with dox 24 hours later. The animals were then randomized to not receive or receive one additional dose of Poly(I:C) 24 hours later and dox was administered continuously during this 2 week interval.
as §2

[3] = tested on: KC/CXCL1 and MIP-2/CXCL14; assay: BAL neutrophil chemotactic chemokines by ELISA; conditions: Tg+ mice, pretreatment, 2 weeks
Description: ELISA and activity assay kits for IFNa and IFNβ analysis were purchased from PBL Biomedical Laboratories (Piscataway, N.J.). ELISAs for eotaxin/CCL11, MCP-1/CCL2, KC/CXCL1 and MIP-2/CXCL14 were obtained from R&D Systems (Minneapolis, Minn. USA). Each was performed according to the manufacturer's instructions.

[4] = tested on: IFNAR1; assay: Poly(I:C) regulation of VEGF responses in IFNAR1 null VEGF Tg+ mice
Description: TLR3^−/−-mice were a gift from Dr. Richard A. Flavell (Yale University), MAVS null mice were a gift from Dr Zijian J. Chen (U of Texas Southwestern) (Sun et al., 2006, Immunity 24:633-642), double stranded RNA-dependent protein kinase null mutant mice (PKR^−/−) were a gift from Dr. Bryan R. G. Williams (Cleveland Clinic Foundation) (Yang et al., 1995, Embo J 14:6095-6106) and IFNAR1 null mice were obtained from Dr. Richard Enelow (Dartmouth). These mice were bred with the VEGF Tg+ mice to generate transgenic mice with wild type (+/+) or null (−/−) TLR3, MAVS, PKR or IFNAR1 loci. Thus, in each given experiment, the effects in transgene negative (Tg−) and transgenic (Tg+) mice with WT and null TLR3, MAVS, PKR or IFNAR1 loci were compared.
as §1, with “weeks. […]” for “weeks.”

[5] = pretreatment, highest dose tested

## polyinosinic-polycytidylic acid [Poly(I:C)]
[1]; Tg+ mice, pretreatment
  VEGF-stimulated mucus secretion: decreased
  VEGF-induced mucus metaplasia (PAS stains, BAL MUC5AC accumulation): inhibited
[1]; Tg+ mice, pretreatment, listed as poly(I:C)
  VEGF-induced mucus metaplasia (PAS stains, BAL MUC5AC accumulation): significantly decreased
[1]; given 48 hours or 14 days after dox-induced transgene activation
  VEGF-induced mucus metaplasia, delayed administration: significant inhibition
[1]; pretreatment
  lowest dose with significant inhibition of VEGF-induced mucus metaplasia: 5 µg
[1]; [5]
  dose with maximal inhibition of VEGF-induced mucus metaplasia: 30 µg
[2]; Tg+ mice, given 2 days (48 hours) or 14 days (2 weeks) after transgene activation with dox
  VEGF-induced vascular responses, delayed administration: significant decrease; also recorded: significant inhibition
[2]; Tg+ mice
  VEGF-induced angiogenesis (vascular density, appearance, sprouting): inhibited
[2]; Tg+ mice, listed as poly(I:C)
  VEGF-induced angiogenesis (vascular density, appearance, sprouting): markedly decreased
[2]; VEGF-induced tissue responses, TLR agonist administration, PBS control 43
  Vascularity (%): 28.7%
[2]; pretreatment
  lowest dose with significant inhibition of VEGF-induced angiogenesis: 5 µg
[2]; [5]
  dose with maximal inhibition of VEGF-induced angiogenesis: 30 µg
[2]; shorter treatment interval, 1 dose before dox
  vascular density after as little as 1 dose: significant decrease
[3]
  levels of KC/CXCL1 and MIP-2/CXCL14 in BAL: significant increases
[4]; 30 μg pretreatment, 2 weeks
  ability to inhibit VEGF-induced angiogenesis, edema, inflammation and mucin production in Tg+ mice with null mutations of IFNAR1: significantly decreased
[4]; Tg+ mice lung immunoblot
  ability to inhibit Erk, FAK, Akt and eNOS signaling pathways in mice lacking the IFNAR1 receptor: significantly decreased

From patent publication US20110245323A1, “RIG-Like Helicase Innate Immunity Inhibits VEGF-Induced Tissue Responses” (Yale University, priority 2006, published 2011)
